US8273705B2, “Conversion of apoptotic proteins” (The Burnham Institute, priority 2002, dated 2012)
d = 2'-deoxy (DNA); r = 2'-OH (RNA)

What was measured:
[1] = system: peripheral blood lymphocytes (PBLs); assay: Apoptosis of peripheral blood lymphocytes; assay type: cell-based, human; details: oligonucleotide transfected
Experimental: Isolation and transfection of human peripheral blood lymphocytes (PBLs)—Leukocyte-enriched buffy coats from San Diego Blood Bank were diluted with 2 volumes of PBS, and PBLs were isolated by centrifuge on Ficoll-paque™ Plus (Amersham Pharmacia biotech). The mononuclear cells were cultured in RPMI containing 10% FBS and 20 μM Hepes. Freshly isolated cells (10^7 cells per transfection) were washed once with PBS containing 0.5% BSA and supernatant was completely discarded so that no residual PBS/BSA covers the pellet. The cells were resuspended in 100 μl of the human T Cell Nucleofector™ solution (Amexa biosystems) and very gently mixed with 1-4 μg DNA in 5 μl. The cell suspension was transferred into a cuvette supplied by Amexa biosystems and electroporated using U-14 program of Nucleofector™ device. The cells were removed from the cuvette quickly by adding 500 μl of the pre-warmed RPMI medium containing 10% FBS and 20 μM Hepes and transferred into 12 well plates containing 1.5 ml of pre-warmed culture medium.

H460 lung cancer cells = assay: TR3 induction and apoptosis in H460 lung cancer cells; assay type: cell-based
Experimental: (§1) In addition to TPA, AHPN and its structural analogs also induce TR3 expression and TR3-dependent apoptosis in an epithelial cancer cell line. […] Lysates were then incubated with anti-Bcl-2 antibody. Immunoblotting of immunoprecipitates was conducted using anti-TR3 and anti-Bcl-2 antibodies.
BH3-only proteins exert their apoptotic effects through either Bax or Bak. The involvement of Bax and Bak in Bcl-2-dependent apoptosis induced by TR3 was therefore examined.
To determine whether Bak, which was highly expressed in H460 cells, played a role in Bcl-2-dependent apoptosis induced by TR3, the effects of Bak siRNA transfection was examined. […] Thus, Bcl-2-dependent apoptosis induced by TR3 depends on multidomain pro-apoptotic Bcl-2-family proteins such as Bak.

TR3/Bcl-2 interaction = assay: Co-IP of TR3 and Bcl-2 in H460 lung cancer cells; assay type: cell-based; details: 10^−6 M for 3 hours
Experimental: as §1

MGC80-3 cells = assay: TR3-dependent apoptosis in MGC80-3 cells with Bcl-2 siRNA; assay type: cell-based; details: control GFP-siRNA-transfected MGC80-3 cells
Experimental: Bcl-2 siRNAs and antisense oligonucleotides—The target siRNA SMARTPOOLs® for Bcl-2 and Bak and the siRNA oligonucleotide for TR3 (5′-CAG UCC AGC CAU GCU CCU dTdT) (SEQ ID NO: 2) were purchased from Dharmacon Research Inc. Target or control siRNA were transfected at a final concentration of 200 nM into cells at 40% confluency using Oligofectamine reagent (Invitrogen) according to the manufacturer's recommendations. After 48 h, cells were analyzed. Bcl-2 antisense oligonucleotide targeting Bcl-2 and negative control oligonucleotides were obtained from Calbiochem. They (2.5 μM) were transfected into cells at 60% confluency for 36 h before analysis.
The effect of inhibiting endogenous Bcl-2 expression on the TR3-dependent apoptosis in MGC80-3 cells was next analyzed. […] However, 3-Cl-AHPC-induced apoptosis was suppressed by more than half (about 60%) in Bcl-2 siRNA-transfected cells. Similar results were obtained in H460 lung cancer cells. […] Thus, Bcl-2 can manifest a pro-apoptotic phenotype in settings where TR3 is expressed and targets to mitochondria.

[2] = system: MGC80-3 gastric cancer cells; assay: TR3 mitochondrial targeting in MGC80-3 gastric cancer cells; assay type: cell-based; details: MGC80-3 cells treated with 3-Cl-AHPC
Experimental: C. Small interfering RNA (siRNA)—To complement these gene transfection experiments, a small interfering (si)RNA approach was used to determine the effect of suppressing endogenous Bcl-2 expression on TR3 mitochondrial targeting. […] After 48 h, lysates were prepared and assayed by immunoblotting using anti-Bcl-2 and anti-β-actin antibodies.

[3] = system: primary dopaminergic neurons; assay: TR3 localization in primary dopaminergic neurons; assay type: cell-based, rat; details: 100 μM, one hour
Experimental: To further investigate TR3 targeting of mitochondria, rat primary neurons were treated with the dopaminergic neurotoxin 1-methyl-4-phenyl-1,2,3,6-tetrahydropyridine (MPTP). MPTP induces Parkinson's disease in animals. […] Neurons were identified by staining with neuron marker. TR3 and mitochondria (Hsp60) were visualized using confocal microscopy. […] TR3 was found only in the nucleus of non-treated neurons. Thus, TR3 mitochondrial localization plays a role in mediating the effect of dopaminergic neurotoxin in neurons.

293T cells = assay: DAPI apoptosis assay in 293T cells; assay type: cell-based, human; details: 293T, transfected alone, 36 h, DAPI
Experimental: Apoptosis assays—For nuclear morphological change analysis, cells were trypsinized, washed with PBS, fixed with 3.7% paraformaldehyde, and stained with DAPI (4,6-diamidino-2-phenylindole) (50 μg/ml) to visualize the nuclei by UV-microscopy. The percentages of apoptotic cells were determined by counting 300 GFP-positive cells, scoring cells having nuclear fragmentation and/or chromatin condensation.
DAPI staining was used to study the apoptotic effect of TR3/Bcl-2 interaction. 293T cells were transfected with GFP-TR3/ΔDBD alone or together with Bcl-2. After 36 h, nuclei were stained by DAPI and nuclear fragmentation and chromatin condensation were identified. Cells were also stained with anti-Bcl-2 antibody, followed by TRITC-conjugated secondary antibody (Sigma). Bcl-2 and GFP-ΔDBD expression and nuclear morphology were visualized by fluorescence microscopy, and the two images were overlaid. […] But, when Bcl-2 was cotransfected, a significant amount of transfected cells underwent apoptosis. For example, approximately 4% of cells transfected with either TR3/ΔDBD or Bcl-2 were apoptotic, compared to 35% of cell transfected with both. […]
To characterize the pro-apoptotic mechanism of Bcl-2 in the setting of TR3-induced apoptosis, various TR3 mutants and Bcl-2 mutants were co-expressed in HEK293T cells. […] Cells displaying nuclear condensation or fragmentation were scored. […]

Bcl-XL = biological target: T1, Bcl-XL (Homo sapiens, UniProt Q07817); assay: TCTP/Bcl-XL interaction (yeast two-hybrid, immunoprecipitation in HEK293T); assay type: binding
T1 construct: expressed in transfected cells; host or cells: HEK293T
T1 sequence (Q07817 whole entry): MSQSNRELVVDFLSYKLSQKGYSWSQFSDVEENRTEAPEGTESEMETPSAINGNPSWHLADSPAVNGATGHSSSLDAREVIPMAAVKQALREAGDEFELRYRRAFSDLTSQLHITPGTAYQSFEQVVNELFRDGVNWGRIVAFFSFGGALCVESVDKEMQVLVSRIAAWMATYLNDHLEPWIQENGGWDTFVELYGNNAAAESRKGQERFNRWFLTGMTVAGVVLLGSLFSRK
From the text: Bcl-XL cDNA was constructed into the pGilda yeast two-hybrid vector. Using pGilda-Bcl-XL as bait, a human testis cDNA library was used in yeast two-hybrid screening to screen for potential Bcl-XL interacting proteins. pGilda-Bcl-XL and a reporter plasmid pSH18-34 were co-transfected into EGY48 yeast cells. The transfectant yeast cells were then transfected in large scale with yeast two-hybrid library cDNA plasmids. Positive clones were identified through selection in Leucine-deficient media. A total of 95 positive colonies were identified. These positive clones were further examined for a second reporter expression by β-gal filter assays. Among these clones, 29 of them tested positive. These clones were further examined by mating assays to confirm the interaction with Bcl-XL. Ten positive clones were isolated and sequenced to reveal their identity. Two of them encode cDNAs identical to human Translationally-Controlled Tumor Protein (TCTP).
TCTP is a calcium-binding protein with no previous identified role in apoptosis regulation. […] Cell lysates were immunoprecipitated with polyclonal anti-GFP antibody. The immunoprecipitates or the lysates were blotted with anti-HA or anti-GFP antibodies, respectively.

cos-7 cells [4] = assay: TCTP/Bcl-XL co-localization in cos-7 cells; assay type: cell-based; details: cos-7, GFP-TCTP and RFP-Bcl-XL
From the text: Images were photographed with a confocal microscope.

cos-7 cells [5] = assay: TCTP-induced apoptosis (DAPI) in cos-7 cells; assay type: cell-based
Experimental: Cells were fixed and stained with DAPI 48 hours after transfection (n≧200 total cells evaluated) and the percentage of apoptotic cells was calculated (mean±SD, n=3) (FIG. 7).

Molecule: 5′-CAG UCC AGC CAU GCU CCU dTdT (CAGUCCAGCCAUGCUCCUTT; siRNA; sugars from the 5' end r18 d2, backbone not given here) [TR3 siRNA, reference compound]
- TPA/ionomycin-induced apoptosis of PBLs [1]: partially inhibited

Molecule: O=C(O)/C=C/c1ccc(-c2ccc(O)c(C34CC5CC(CC(C5)C3)C4)c2)c(Cl)c1 [3-Cl-AHPC]
- apoptosis (H460 lung cancer cells): extensive apoptosis
- TR3 expression, mitochondrial targeting and apoptosis (H460 lung cancer cells; 10^−6 M for 3 hours): potently induces TR3 expression, mitochondrial targeting and apoptosis
- co-immunoprecipitation of TR3 with anti-Bcl-2 antibody (TR3/Bcl-2 interaction): demonstrated co-immunoprecipitation of TR3
- apoptosis (MGC80-3 cells): resulted in apoptosis
- endogenous TR3 localization [2]: targeted mitochondria

Molecule: CN1CC=C(c2ccccc2)CC1 [MPTP, 1-methyl-4-phenyl-1,2,3,6-tetrahydropyridine]
- endogenous TR3 localization [3]: found exclusively in the cytoplasm and colocalized with mitochondria

Molecule: Bcl-2: Bcl-2 expression vector transfected into cells
- apoptotic cells (293T cells): approximately 4%

Molecule: TCTP: human Translationally-Controlled Tumor Protein
- interaction with Bcl-XL (Bcl-XL): interacts with Bcl-XL
- subcellular localization with Bcl-XL (cos-7 cells [4]): recruits TCTP from cytosolic location to the mitochondria
- apoptosis (cos-7 cells [5]; expressed together with Bcl-XL versus without Bcl-XL, 48 hours): More apoptosis
- apoptosis (cos-7 cells [5]; over-expressed in cells): induces apoptosis
